This is an account of results in patent publication US8586607B2, “Compounds for the treatment of metabolic diseases” (Syddansk Universitet, priority 2008, dated 2013).

SMILES strings stand for the structures.

Sequence of human GPR40 (O14842 whole entry): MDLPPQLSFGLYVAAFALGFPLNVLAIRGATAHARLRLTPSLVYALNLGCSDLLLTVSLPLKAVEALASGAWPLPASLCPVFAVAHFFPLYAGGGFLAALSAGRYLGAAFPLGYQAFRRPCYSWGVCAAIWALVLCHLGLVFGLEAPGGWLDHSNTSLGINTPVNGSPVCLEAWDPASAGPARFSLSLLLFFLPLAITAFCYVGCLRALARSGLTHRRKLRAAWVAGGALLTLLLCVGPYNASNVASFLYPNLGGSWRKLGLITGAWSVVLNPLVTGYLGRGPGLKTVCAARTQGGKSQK

The first assay concerns the target human GPR40 (Homo sapiens, UniProt O14842). In words: Calcium mobilization assay, agonistic activity on GPR40. In kind it is cell-based. Particulars: cells expressing human GPR40 (hGPR40-1321N1). On the procedure:
Cell Culture and Transfection. 1321N1 cells stably transfected with the human GPR40 were kindly provided by Euroscreen (Gosselies, Belgium). hGPR40-1321N1 cells were grown in Dulbecco's modified Eagle's medium supplemented with 10% (v/v) heat-inactivated fetal calf serum, 1% sodium pyruvate, 100 U/ml penicillin, 100 μg/ml streptomycin, and 400 μg/ml G418. 1321N1, HEK293 cells were grown in Dulbecco's modified Eagle's medium supplemented with 10% (v/v) heat-inactivated fetal calf serum, 1% sodium pyruvate, 100 U/ml penicillin, and 100 μg/ml streptomycin. All cells were kept at 37° C. in a 5% CO2 atmosphere. […]
Calcium Mobilization Assays. Calcium measurements were performed using a NOVOstar® microplate reader with a built-in pipetor (BMG LabTech, Offenburg, Germany). Cells were seeded in 96-well tissue-culture plates at a density of 30,000 cells per well. […] For testing of agonists, 20 μl of a ten-fold concentrated test compound solution was injected sequentially into separate wells and fluorescence was measured at 520 nm (bandwidth 25 nm) for 50 intervals of 0.4 seconds each. […] Concentration-inhibition curves in the presence of the test compounds were obtained by preincubating the cells with the compounds for 30 min at 37° C. prior to injection of agonist.
In general terms: Calcium assays in cells follow changes in intracellular calcium, usually with a dye or a luminescent sensor.
As for `O=C(O)CCc1ccc(C#Cc2ccccc2)cc1` [Example A5, 3-(4-(Phenylethynyl)phenyl)propanoic acid], the “GPR40 agonistic activity (pEC50)” value came out at 7.02. Same read-out and setting: to `Cc1cccc(C#Cc2ccc(CCC(=O)O)cc2)c1` [Example A7, 3-(4-(m-Tolylethynyl)phenyl)propanoic acid] belongs 7.36. Same read-out and setting: to `O=C(O)CCc1ccc(C#Cc2cccc(CO)c2)cc1` [Example A8, 3-(4-((3-(Hydroxymethyl)phenyl)ethynyl)phenyl)propanoic acid] belongs 6.05; to `Cc1ccccc1C#Cc1ccc(CCC(=O)O)cc1` [Example A9, 3-(4-(o-Tolylethynyl)phenyl)propanoic acid], 7.49; to `N#Cc1cccc(C#Cc2ccc(CCC(=O)O)cc2)c1` [Example A11, 3-(4-((3-Cyanophenyl)ethynyl)phenyl)propanoic acid], 7.04. As for `O=Cc1cccc(C#Cc2ccc(CCC(=O)O)cc2)c1` [Example A13, 3-(4-((3-Formylphenyl)ethynyl)phenyl)propanoic acid], the “GPR40 agonistic activity (pEC50)” value was 6.45. Consider `O=C(O)CCc1ccc(C#Cc2cccc(C(F)(F)F)c2)cc1` [Example A14, 3-(4-((3-(Trifluoromethyl)phenyl)ethynyl)phenyl)propanoic acid], for which the “GPR40 agonistic activity (pEC50)” value amounted to 7.05.

`Cc1cc(C)cc(C#Cc2ccc(CCC(=O)O)cc2)c1` [Example A15, 3-(4-((3,5-Dimethylphenyl)ethynyl)phenyl)propanoic acid]: the “GPR40 agonistic activity (pEC50)” value was found to be 7.13. On the same count and under the same terms, the same measure for `Cc1cccc(C#Cc2ccc(CCC(=O)O)cc2)c1C` [Example A16, 3-(4-((2,3-Dimethylphenyl)ethynyl)phenyl)propanoic acid]: 7.06. With `Nc1cccc(C#Cc2ccc(CCC(=O)O)cc2)c1` [Example A17, 3-(4-((3-Aminophenyl)ethynyl)phenyl)propanoic acid], the “GPR40 agonistic activity (pEC50)” value was found to be 5.96. Consider `C#Cc1cccc(C#Cc2ccc(CCC(=O)O)cc2)c1` [Example A18, 3-(4-((3-Ethynylphenyl)ethynyl)phenyl)propanoic acid], for which the “GPR40 agonistic activity (pEC50)” value was determined as 6.81. With `CCc1ccccc1C#Cc1ccc(CCC(=O)O)cc1` [Example A30, 3-(4-((2-Ethylphenyl)ethynyl)phenyl)propanoic acid], the “GPR40 agonistic activity (pEC50)” value came out at 7.05.

`Cc1cc(C#Cc2ccc(CCC(=O)O)cc2)ccn1` [Example A32, 3-(4-((2-Methylpyridin-4-yl)ethynyl)phenyl)propanoic acid]: the “GPR40 agonistic activity (pEC50)” value is listed as 5.95.

Take `O=C(O)CCc1ccc(C#Cc2ncccc2[N+](=O)[O-])cc1` [Example A34, 3-(4-((3-Nitropyridin-2-yl)ethynyl)phenyl)propanoic acid]: the “GPR40 agonistic activity (pEC50)” value turned out to be 4.96. Same read-out and setting: the same measure for `O=C(O)C1CC1c1ccc(C#Cc2cc(Cl)nc(Cl)c2)cc1` (stereo not drawn) [Example A35, 2-(4-((2,6-Dichloropyridin-4-yl)ethynyl)phenyl)cyclopropanecarboxylic acid]: 7.37. Regarding `O=C(O)CCc1ccc(C#Cc2ccccc2-c2ccccc2)cc1` [Example A40, 3-(4-(Biphenyl-2-ylethynyl)phenyl)propanoic acid], the “GPR40 agonistic activity (pEC50)” value was 6.00. Still for that read-out and setting: to `Cc1cccc(C)c1C#Cc1ccc(CCC(=O)O)cc1` [Example A50, 3-(4-((2,6-Dimethylphenyl)etnynyl)phenyl)propanoic acid] belongs 6.38.

For `COc1ccccc1C#Cc1ccc(CCC(=O)O)cc1` [Example A51, 3-(4-((2-Methoxyphenyl)ethynyl)phenyl) acid], the “GPR40 agonistic activity (pEC50)” value came to 6.66. The same measure, in the same setting: the same measure for `O=C(O)CCc1ccc(C#Cc2cccc(O)c2)cc1` [Example A52, 3-(4-((3-Hydroxyphenyl)ethynyl)phenyl)propanoic acid]: 6.35; for `CC(=O)c1ccccc1C#Cc1ccc(CCC(=O)O)cc1` [Example A53, 3-(4-((2-Acetylphenyl)ethynyl)phenyl)propanoic acid]: 6.73. The same measure, in the same setting: the same measure for `O=C(O)CCc1ccc(C#Cc2ccccc2O)cc1` [Example A58, 3-(4-((2-Hydroxyphenyl)ethynyl)phenyl)propanoic acid]: 4.79; for `O=C(O)CCc1ccc(C#Cc2ccccc2CO)cc1` [Example A59]: 6.24.

Staying with this assay, now noted: cells expressing human GPR40 (hGPR40-1321N1), read-out: GPR40 agonistic activity (pEC50) (converted).
`O=C(O)[C@@H]1C[C@H]1c1ccc(C#Cc2ccccc2)cc1` (relative stereo) [Example A29, trans-2-(4-(Phenylethynyl)phenyl)cyclopropanecarboxylic acid]: the EC50 was 0.145 µM.

For the compound `O=C(O)COc1ccc(C#Cc2ccccc2)cc1` [Example A1, 2-(4-(Phenylethynyl)phenoxy)acetic acid], the EC50 was 1.32 µM. On the same count and under the same terms, to `Cc1ccccc1C#Cc1ccc(OCC(=O)O)cc1` [Example A2, 2-(4-(o-Tolylethynyl)phenoxy)acetic acid] belongs 3.63 µM. On the same count and under the same terms, to `Cc1ccc(C#Cc2ccc(OCC(=O)O)cc2)cc1` [Example A3, 2-(4-(p-Tolylethynyl)phenoxy)acetic acid] belongs 29.5 µM; to `Cc1cccc(C#Cc2ccc(OCC(=O)O)cc2)c1` [Example A4, 2-(4-(m-Tolylethynyl)phenoxy)acetic acid], 0.562 µM; to `O=C(O)CCc1ccc(C#Cc2cccc3ccccc23)cc1` [Example A6, 3-(4-(1-Naphthylethynyl)phenyl)propanoic acid], 0.0851 µM. Same read-out and setting: to `O=C(O)CCc1ccc(C#Cc2cccc([N+](=O)[O-])c2)cc1` [Example A12, 3-(4-((3-Nitrophenyl)ethynyl)phenyl)propanoic acid] belongs 0.0575 µM. With `O=C(O)CCc1ccc(C#Cc2cccc(-c3cn(Cc4ccccc4)nn3)c2)cc1` [Example A19, 3-(4-((3-(1-Benzyl-1H-1,2,3-triazol-4-yl)phenyl)ethynyl)phenyl)propanoic acid], the EC50 was 1.91 µM. The same measure, in the same setting: to `O=C(O)CCc1ccc(C#Cc2ccccn2)cc1` [Example A20, 3-(4-(Pyridin-2-ylethynyl)phenyl)propanoic acid] belongs 8.13 µM. Consider `O=C(O)CCc1ccc(C#Cc2cccnc2)cc1` [Example A21, 3-(4-(Pyridin-3-ylethynyl)phenyl)propanoic acid], for which the EC50 was 2.75 µM. Still for that read-out and setting: the same measure for `O=C(O)CCc1ccc(C#Cc2ccnc(Cl)c2)cc1` [Example A22, 3-(4-((2-Chloropyridin-4-yl)ethynyl)phenyl)propanoic acid]: 0.115 µM. Still for that read-out and setting: the same measure for `Cc1cccc(C#Cc2ccc(CCC(=O)O)cc2)n1` [Example A23, 3-(4-((6-Methylpyridin-2-yl)ethynyl)phenyl)propanoic acid]: 3.8 µM. On the same count and under the same terms, to `O=C(O)COc1ccc(C#Cc2cccc(O)c2)cc1` [Example A24, 2-(4-((3-Hydroxyphenyl)ethynyl)phenoxy)ethanoic acid] belongs 4.79 µM; to `O=C(O)COc1ccc(C#Cc2ccc(O)cc2)cc1` [Example A25, 2-(4-((4-Hydroxyphenyl)ethynyl)phenoxy)ethanoic acid], 132 µM.

Take `O=C(O)COc1ccc(C#Cc2ccc(CO)cc2)cc1` [Example A26, 2-(4-((4-(Hydroxymethyl)phenyl)ethynyl)phenoxy)ethanoic acid]: the EC50 is 112 µM.

Consider `O=C(O)CCc1ccc(C#Cc2cc(Cl)nc(Cl)c2)cc1` [Example A33, 3-(4-((2,6-Dichloropyridin-4-yl)ethynyl)phenyl)propanoic acid], for which the EC50 was 0.0562 µM. Same read-out and setting: the same measure for `Cc1ccccc1C#Cc1ccc(C2CC2C(=O)O)cc1` (stereo not drawn) [Example A36, 2-(4-(o-Tolylethynyl)phenyl)cyclopropanecarboxylic acid]: 0.138 µM; for `Cc1cccc(C#Cc2ccc(C3CC3C(=O)O)cc2)c1` (stereo not drawn) [Example A37, 2-(4-(m-Tolylethynyl)phenyl)cyclopropanecarboxylic acid]: 0.0933 µM; for `Cc1ccc(C#Cc2ccc(C3CC3C(=O)O)cc2)cc1` (stereo not drawn) [Example A38, 2-(4-(p-Tolylethynyl)phenyl)cyclopropanecarboxylic acid]: 0.309 µM. As for `O=C(O)CCc1ccc(C#Cc2cccc(OCc3ccccc3)c2)cc1` [Example A55, 3-(4-((3-(Benzyloxy)phenyl)ethynyl)phenyl)propanoic acid], the EC50 is 0.525 µM. On the same count and under the same terms, to `C#CCOc1cccc(C#Cc2ccc(CCC(=O)O)cc2)c1` [Example A56, 3-(4-((3-(Prop-2-ynyloxy)phenyl)ethynyl)phenyl)propanoic acid] belongs 0.0776 µM; to `C=CCOc1cccc(C#Cc2ccc(CCC(=O)O)cc2)c1` [Example A57, 3-(4-((3-(Allyloxy)phenyl)ethynyl)phenyl)propanoic acid], 0.145 µM. Regarding `Cc1ccc(S(=O)(=O)OCCc2ccccc2C#Cc2ccc(CCC(=O)O)cc2)cc1` [Example A61, 3-(4-((2-(2-(Tosyloxy)ethyl)phenyl)ethynyl)phenyl)propanoic acid], the EC50 is 0.316 µM.
